Assay: Uptake and metabolism of ERG240 in human macrophage lysates by GC/MS
Format: in vitro ADME
From the text: NCOMMS-16-23550_Point by Point Responses Papathanassiu et al.
Add additional explanation for “extracellular space” findings because this is unclear.
Authors’ reply. ‘Extracellular space’ has now been replaced by ‘extracellular matrix genes’ in the revised manuscript (Figure 3 in the submitted manuscript which is now Figure 4 in the revised one). We have also added a Volcano plot showing the differentially expressed genes (Figure 4E in the revised manuscript).
Authors fail to cite and discuss this paper found in quick google search “ Nemeth, B.; Doczi, J.; Csete, D.; Kacso, G.; Ravasz, D.; Adams, D.; Kiss, G.; Nagy, A. M.; Horvath, G.; Tretter, L.; Mocsai, A.; Csepanyi-Komi, R.; Iordanov, I.; Adam-Vizi, V.; Chinopoulos, C. (2015).
“Abolition of mitochondrial substrate-level phosphorylation by itaconic acid produced by LPS-induced Irg1 expression in cells of murine macrophage lineage”. The FASEB Journal.
Authors’ reply. This paper is now cited and discussed by adding this following paragraph to the discussion (highlighted text).
Besides its antimicrobial effects, itaconate has been proposed as an inhibitor of substrate level phosphorylation (SLP) through its effect on succinate-CoA ligase in RAW-264.7 cells1.
Statistical analysis (or indications in figures) is lacking in Fig 1C. Fig 4C.
Authors’ reply. Statistical analyses are added for Fig 1C and 4C. Please note that Figure
4C is now Figure 5C in the revised manuscript. (See also highlighted text in figure legends).
Dosing in vitro should be discussed further- 20mM in vitro is a high dose if IC50 is in nM […]
Authors’ reply. ERG240 is a structural analogue of leucine, designed based on the X-ray crystal structure of BCAT1 and, as the reviewer correctly states, it can inhibit BCAT1 within 0.1-1nM range of IC50. The concentration of 20 mM used in the cellular assays is because […]
possible competition with leucine, which is in mM concentration (0.381 mM) in the RPMI media used throughout the study. […]
A cartoon of metabolites regulated would aid the reader. […]
ERG240 can easily be detected […]

## CC(=O)C(C)CCC(=O)O (stereo not drawn) [ERG240]
1x10^6 cells treated with 3.28 mg ERG240 (20 mM)
  uptake of the compound by cells: 0.8 to 3 ng
Human macrophages treated with 20 mM
  estimated intracellular ERG240 concentration: 70 to 260 nM
Lysates of human macrophages, GC/MS
  cellular metabolism of the drug: does not undergo any cellular metabolic reaction

From article PMC5510229, “BCAT1 controls metabolic reprogramming in activated human macrophages and is associated with inflammatory diseases” (Nature Communications, 2017)
